Measured values reported in patent publication US7932270B2 (Cytokinetics, Inc., priority 2006, dated 2011).

Target: T1, chicken gizzard smooth muscle myosin subfragment-1 chemically crosslinked to cardiac or skeletal actin (Gallus gallus, UniProt P10587)
T1 construct: chicken gizzard smooth muscle myosin subfragment-1; from tissue; host or cells: chicken gizzard
Experiment: Smooth muscle myosin ATPase dose response assay (pyruvate kinase/horseradish peroxidase/pyruvate oxidase-coupled, amplex red fluorescence)
Type: biochemical
Details: read-out: IC50 Arithmetic Mean
How it was run: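 Readout is amplex red signal from coupled ATPase of actin-crosslinked gizzard myosin S1 (0.15 mM ATP, 12 mM K-PIPES, pH 7.00). IC50 is the half-maximal activity point of a four-parameter Hill fit.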

T1 sequence (P02607 2-151): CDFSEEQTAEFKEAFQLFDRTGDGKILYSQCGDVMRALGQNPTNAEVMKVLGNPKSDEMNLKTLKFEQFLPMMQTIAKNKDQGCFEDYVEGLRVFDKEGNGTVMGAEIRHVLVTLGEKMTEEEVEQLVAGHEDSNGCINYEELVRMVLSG
T1 sequence (P10587 84-789): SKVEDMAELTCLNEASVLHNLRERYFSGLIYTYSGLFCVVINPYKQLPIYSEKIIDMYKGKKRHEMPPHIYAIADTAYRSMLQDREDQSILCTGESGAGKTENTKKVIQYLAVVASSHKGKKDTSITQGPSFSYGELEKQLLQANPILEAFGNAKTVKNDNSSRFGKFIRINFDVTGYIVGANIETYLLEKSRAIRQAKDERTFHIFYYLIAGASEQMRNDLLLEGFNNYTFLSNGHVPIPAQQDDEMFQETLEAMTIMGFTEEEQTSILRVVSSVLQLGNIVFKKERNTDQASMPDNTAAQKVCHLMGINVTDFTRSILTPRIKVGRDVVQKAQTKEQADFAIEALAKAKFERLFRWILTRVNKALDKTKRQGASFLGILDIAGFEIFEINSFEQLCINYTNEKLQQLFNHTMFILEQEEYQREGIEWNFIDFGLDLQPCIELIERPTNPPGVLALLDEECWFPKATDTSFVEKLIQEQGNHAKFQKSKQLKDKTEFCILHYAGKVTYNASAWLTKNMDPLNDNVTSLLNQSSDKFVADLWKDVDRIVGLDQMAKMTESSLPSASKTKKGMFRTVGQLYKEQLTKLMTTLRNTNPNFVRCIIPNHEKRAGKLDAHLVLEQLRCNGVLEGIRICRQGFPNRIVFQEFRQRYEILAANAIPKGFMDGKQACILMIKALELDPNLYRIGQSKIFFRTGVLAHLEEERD

IC50 | SMILES
12 nM | Cn1cc(-c2nc(NCCc3cccc(F)c3)c(C(=O)NCc3cccnc3)cc2F)cn1 [(5-fluoro-2-{[2-(3-fluorophenyl)ethyl]amino}-6-(1-methylpyrazol-4-yl)(3-pyridyl))-N-(3-pyridylmethyl)carboxamide]
1320 nM | O=C(NCc1cccnc1)c1ccc(-c2ccccc2F)nc1NCCc1ccccn1 [{6-(2-fluorophenyl)-2-[(2-(2-pyridyl)ethyl)amino](3-pyridyl)}-N-(3-pyridylmethyl)carboxamide]
57400 nM | CNC(=O)/C=C/c1ccc(-c2ccccc2)nc1NCCc1cccc(F)c1 [(2E)-3-(2-{[2-(3-fluorophenyl)ethyl]amino}-6-phenyl(3-pyridyl))-N-methylprop-2-enamide]
19 nM | N#Cc1ccccc1-c1ccc(C(=O)NCc2cccc(CNCCN)n2)c(NCCc2cccc(F)c2)n1 [N-[(6-{[(2-aminoethyl)amino]methyl}(2-pyridyl))methyl](6-(2-cyanophenyl)-2-{[2-(3-fluorophenyl)ethyl]amino}(3-pyridyl))carboxamide]
4950 nM | N#Cc1ccccc1-c1ccc(C(=O)NCCCN2C(=O)CC[C@@H]2CN)c(NCCc2cccc(F)c2)n1 [N-{3-[(5R)-5-(aminomethyl)-2-oxopyrrolidinyl]propyl}(6-(2-cyanophenyl)-2-{[2-(3-fluorophenyl)ethyl]amino}(3-pyridyl))carboxamide]
2950 nM | N#Cc1ccccc1-c1ccc(C(=O)NCCN2CCC[C@H](N)C2=O)c(NCCc2cccc(F)c2)n1 (stereo in doubt) [N-[2-(3-amino-2-oxopiperidyl)ethyl](6-(2-cyanophenyl)-2-{[2-(3-fluorophenyl)ethyl]amino}(3-pyridyl))carboxamide]
985 nM | CNC(=O)[C@H](C)NC(=O)c1ccc(-c2ccccc2C#N)nc1NCCc1cccc(F)c1 [(2S)-2-[(6-(2-cyanophenyl)-2-{[2-(3-fluorophenyl)ethyl]amino}(3-pyridyl))carbonylamino]-N-methylpropanamide]
350 nM | CNC(=O)CNC(=O)c1ccc(-c2cnn(C)c2)nc1NCCc1cccc(F)c1 [2-[(2-{[2-(3-fluorophenyl)ethyl]amino}6-(1-methylpyrazol-4-yl)(3-pyridyl))carbonylamino]-N-methylacetamide]
14200 nM | C[C@H](CNC(=O)c1cc(F)c(-c2cn[nH]c2)nc1NCC(O)c1cccc(F)c1)NC(=O)CNC(=O)OC(C)(C)C (some centres unmarked)
8900 nM | NCc1cc(C(=O)NCc2cccnc2)c(NCCc2cccc(F)c2)nc1-c1ccccc1 [(5-(aminomethyl)-2-{[2-(3-fluorophenyl)ethyl]amino}-6-phenyl(3-pyridyl))-N-(3-pyridylmethyl)carboxamide]
4890 nM | N#Cc1ccccc1-c1ccc(C(=O)NC[C@H]2CNCCN2C(=O)CCN)c(NCCc2cccc(F)c2)n1 [N-{[(2R)-1-(3-aminopropanoyl)piperazin-2-yl]methyl}(6-(2-cyanophenyl)-2-{[2-(3-fluorophenyl)ethyl]amino}(3-pyridyl))carboxamide]
791 nM | N#Cc1ccccc1-c1ccc(C(=O)NC[C@H]2CCCC(=O)N2CCCCN2C(=O)c3ccccc3C2=O)c(NCCc2cccc(F)c2)n1 [N-({(2R)-1-[4-(1,3-dioxobenzo[c]azolin-2-yl)butyl]-6-oxo(2-piperidyl)}methyl)(6-(2-cyanophenyl)-2-{[2-(3-fluorophenyl)ethyl]amino}(3-pyridyl))carboxamide]
266 nM | N#Cc1ccccc1-c1ccc(C(=O)NC[C@H]2CCC(=O)N2CCCCCN2C(=O)c3ccccc3C2=O)c(NCCc2cccc(F)c2)n1 [N-({(2R)-1-[5-(1,3-dioxobenzo[c]azolin-2-yl)pentyl]-5-oxopyrrolidin-2-yl}methyl)(6-(2-cyanophenyl)-2-{[2-(3-fluorophenyl)ethyl]amino}(3-pyridyl))carboxamide]
254 nM | CNC(=O)CNC(=O)c1ccc(-c2ccc(CO)s2)nc1NCCc1cccc(F)c1 [2-[(2-{[2-(3-fluorophenyl)ethyl]amino}-6-[5-(hydroxymethyl)(2-thienyl)](3-pyridyl))carbonylamino]-N-methylacetamide]
17900 nM | N#Cc1ccccc1-c1ccc(C(=O)NCCN2C(=O)CC[C@H]2CN)c(NCCc2cccc(F)c2)n1 [N-{2-[(5S)-5-(aminomethyl)-2-oxopyrrolidinyl]ethyl}(6-(2-cyanophenyl)-2-{[2-(3-fluorophenyl)ethyl]amino}(3-pyridyl))carboxamide]
14 nM | N#Cc1ccccc1-c1ccc(C(=O)NCC2CCCNC2=O)c(NCCc2cccc(F)c2)n1 (centres unmarked) [(6-(2-cyanophenyl)-2-{[2-(3-fluorophenyl)ethyl]amino}(3-pyridyl))-N-[(2-oxo(3-piperidyl))methyl]carboxamide]
288 nM | O=C(NCc1cccnc1)c1ccc(-c2ccccc2)nc1NCCc1c(F)cccc1F [(2-{[2-(2,6-difluorophenyl)ethyl]amino}-6-phenyl(3-pyridyl))-N-(3-pyridylmethyl)carboxamide]

IC50 | SMILES
88 nM | N#Cc1ccccc1-c1ccc(C(=O)NC[C@H]2CCN2C(=O)[C@@H](N)CO)c(NCCc2cccc(F)c2)n1 [N-{[(2R)-1-((2S)-2-amino-3-hydroxypropanoyl)azetidin-2-yl]methyl}(6-(2-cyanophenyl)-2-{[2-(3-fluorophenyl)ethyl]amino}(3-pyridyl))carboxamide]
7190 nM | O=C(Nc1ccccn1)c1ccc(-c2ccccc2)nc1NCCc1ccccn1 [{6-phenyl-2-[(2-(2-pyridyl)ethyl)amino](3-pyridyl)}-N-(2-pyridyl)carboxamide]
17900 nM | COc1ccccc1-c1ccc(C(=O)NCc2cccnc2)c(NCCc2ccccn2)n1 [{6-(2-methoxyphenyl)-2-[(2-(2-pyridyl)ethyl)amino](3-pyridyl)}-N-(3-pyridylmethyl)carboxamide]
9570 nM | CC(C)(CNC(=O)c1ccc(-c2ccccc2C#N)nc1NCCc1cccc(F)c1)NC(=O)CNC(=O)OC(C)(C)C
3180 nM | Cn1cc(-c2ccc(C(=O)NC[C@H]3CCCN3)c(NCCc3cccc(F)c3)n2)cn1 [N-[((2R)pyrrolidin-2-yl)methyl](2-{[2-(3-fluorophenyl)ethyl]amino}-6-(1-methylpyrazol-4-yl)(3-pyridyl))carboxamide]
39 nM | CC[C@@H](CO)CNC(=O)c1cc(F)c(-c2cnn(C)c2)nc1NCCc1cccc(F)c1 [N-((2R)-2-ethyl-3-hydroxypropyl)(5-fluoro-2-{[2-(3-fluorophenyl)ethyl]amino}-6-(1-methylpyrazol-4-yl)(3-pyridyl))carboxamide]
783 nM | O=Cc1ccsc1-c1ccc(C(=O)NCc2cccnc2)c(NCCc2cccc(F)c2)n1 [(2-{[2-(3-fluorophenyl)ethyl]amino}-6-(3-formyl(2-thienyl))(3-pyridyl))-N-(3-pyridylmethyl)carboxamide]
1050 nM | O=C(NCc1cccnc1)c1ccc(-c2ccc(F)cc2)nc1NCCc1ccccn1 [{6-(4-fluorophenyl)-2-[(2-(2-pyridyl)ethyl)amino](3-pyridyl)}-N-(3-pyridylmethyl)carboxamide]
13 nM | N#Cc1ccccc1-c1ccc(C(=O)NC[C@H]2CCC(=O)N2)c(NCCc2cccc(F)c2)n1 [N-[((2R)-5-oxopyrrolidin-2-yl)methyl](6-(2-cyanophenyl)-2-{[2-(3-fluorophenyl)ethyl]amino}(3-pyridyl))carboxamide]
60 nM | N#Cc1ccccc1-c1ccc(C(=O)NCc2cccc(C(N)=O)n2)c(NCCc2cccc(F)c2)n1 [6-{[(6-(2-cyanophenyl)-2-{[2-(3-fluorophenyl)ethyl]amino}-3-pyridyl)carbonylamino]methyl}pyridine-2-carboxamide]
45 nM | N#Cc1ccccc1-c1ccc(C(=O)NC[C@H]2CCN2C(=O)CCN)c(NCCc2cccc(F)c2)n1 [N-{[(2R)-1-(3-aminopropanoyl)azetidin-2-yl]methyl}(6-(2-cyanophenyl)-2-{[2-(3-fluorophenyl)ethyl]amino}(3-pyridyl))carboxamide]
48400 nM | CC(=O)N1CCCC(CNC(=O)c2ccc(-c3ccccc3)nc2NCCc2ccccn2)C1 (centres unmarked) [N-[(1-acetyl(3-piperidyl))methyl]{6-phenyl-2-[(2-(2-pyridyl)ethyl)amino](3-pyridyl)}carboxamide]
55 nM | O=C(NCc1cccnc1)c1ccc(-c2ccccc2)nc1NCCc1cc(F)cc(F)c1 [(2-{[2-(3,5-difluorophenyl)ethyl]amino}-6-phenyl(3-pyridyl))-N-(3-pyridylmethyl)carboxamide]
273 nM | N#Cc1ccccc1-c1ccc(C(=O)NCC2CCCCC(=O)N2CCCN)c(NCCc2cccc(F)c2)n1 (centres unmarked) [N-{[1-(3-aminopropyl)-7-oxoazaperhydroepin-2-yl]methyl}(6-(2-cyanophenyl)-2-{[2-(3-fluorophenyl)ethyl]amino}(3-pyridyl))carboxamide]
42 nM | N#Cc1ccccc1-c1nc(NCCc2cccc(F)c2)c(C(=O)NC[C@H]2CCC(=O)N2CCCN)cc1F [N-{[(2R)-1-(3-aminopropyl)-5-oxopyrrolidin-2-yl]methyl}(6-(2-cyanophenyl)-5-fluoro-2-{[2-(3-fluorophenyl)ethyl]amino}(3-pyridyl))carboxamide]
63 nM | O=C(NCc1cccnc1)c1ccc(-c2ccccc2)nc1NCCc1cccc(F)c1 [(2-{[2-(3-fluorophenyl)ethyl]amino}-6-phenyl(3-pyridyl))-N-(3-pyridylmethyl)carboxamide]

SMILES | IC50
CC(C)(C)OC(=O)NCCC(=O)N1CCC[C@@H]1CNC(=O)c1cc(F)c(-c2ccccc2C#N)nc1NCCc1cccc(F)c1 [N-[((2R)-1-{3-[(tert-butoxy)carbonylamino]propanoyl}pyrrolidin-2-yl)methyl](6-(2-cyanophenyl)-5-fluoro-2-{[2-(3-fluorophenyl)ethyl]amino}(3-pyridyl))carboxamide] | 2770 nM
CC(C)(C)OC(=O)NCCCN1CCC[C@@H]1CNC(=O)c1ccc(-c2ccccc2C#N)nc1NCCc1cccc(F)c1 [N-[((2R)-1-{3-[(tert-butoxy)carbonylamino]propyl}pyrrolidin-2-yl)methyl](6-(2-cyanophenyl)-2-{[2-(3-fluorophenyl)ethyl]amino}(3-pyridyl))carboxamide] | 1340 nM
